The values below come from patent publication US5089401A, “Method for the preparation of fructose-containing oligosaccharide” (Ensuiko Sugar Refining Co., Ltd., priority 1990, dated 1992).

In test [1] the target is T1, β-fructofuranosidase (Microbacterium saccharophilum, UniProt Q8VW87).
T1 construct: K-1 culture; crude supernatant or purified preparation
T1 sequence (Q8VW87 37-578): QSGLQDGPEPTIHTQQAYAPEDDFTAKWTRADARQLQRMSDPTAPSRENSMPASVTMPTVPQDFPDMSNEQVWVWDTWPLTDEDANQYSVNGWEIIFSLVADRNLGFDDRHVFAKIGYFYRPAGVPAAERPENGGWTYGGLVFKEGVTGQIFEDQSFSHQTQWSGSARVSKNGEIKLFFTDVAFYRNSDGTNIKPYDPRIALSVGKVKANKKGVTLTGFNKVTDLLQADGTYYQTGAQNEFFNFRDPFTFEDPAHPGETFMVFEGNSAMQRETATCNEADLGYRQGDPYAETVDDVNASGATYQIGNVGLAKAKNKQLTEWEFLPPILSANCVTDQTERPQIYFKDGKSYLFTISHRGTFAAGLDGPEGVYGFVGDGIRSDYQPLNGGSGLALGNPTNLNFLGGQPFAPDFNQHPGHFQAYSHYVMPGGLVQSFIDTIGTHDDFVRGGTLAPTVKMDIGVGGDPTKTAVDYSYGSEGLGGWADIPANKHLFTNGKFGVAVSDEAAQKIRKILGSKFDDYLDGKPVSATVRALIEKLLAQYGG
Description: decomposition of saccharides by the β-fructofuranosidase (substrate specificity). It counts as biochemical, Arthrobacter sp. K-1.

In test [2] the target is T1, β-fructofuranosidase. The format is biochemical, Arthrobacter sp. K-1.
Another test relates to bifidus bacteria. The conditions noted are these: cited from earlier work.

With `OC[C@H]1O[C@H](OC[C@H]2O[C@H](O[C@]3(CO)O[C@H](CO)[C@@H](O)[C@@H]3O)[C@H](O)[C@@H](O)[C@@H]2O)[C@H](O)[C@@H](O)[C@H]1O` [raffinose], the “activity of the enzyme in the decomposition of the saccharide” value (“activity of the enzyme” below) on β-fructofuranosidase [1] is “active in the decomposition”.
On to `OC[C@H]1O[C@@](CO)(O[C@H]2O[C@H](CO)[C@@H](O[C@H]3O[C@H](CO)[C@@H](O)[C@H](O)[C@H]3O)[C@H](O)[C@H]2O)[C@@H](O)[C@@H]1O` [elrose, maltosyl fructoside], for which the “activity of the enzyme” value at β-fructofuranosidase [1] is listed as “active in the decomposition”.
Consider copper, for which the “inhibitive effect of the ion on the enzyme” value (“inhibitive effect of the ion” below) at β-fructofuranosidase [2] is recorded as “susceptible to the inhibitive effect”.
Regarding inulobiose, the “activity of the enzyme” value on β-fructofuranosidase [1] is recorded as “hardly exhibits activity”.
In the case of mercury, at β-fructofuranosidase [2], the “inhibitive effect of the ion” value is recorded as “susceptible to the inhibitive effect”.
On to `OC[C@H]1O[C@@](CO)(OC[C@H]2O[C@](O)(CO)[C@@H](O)[C@@H]2O)[C@@H](O)[C@@H]1O` [levan biose], for which the “activity of the enzyme” value at β-fructofuranosidase [1] was “hardly exhibits activity”.
Consider `OC[C@H]1O[C@@](CO)(OC[C@H]2O[C@H](O[C@]3(CO)O[C@H](CO)[C@@H](O)[C@@H]3O)[C@H](O)[C@@H](O)[C@@H]2O)[C@@H](O)[C@@H]1O` [neokestose], for which the “activity of the enzyme” value on β-fructofuranosidase [1] is on record as “active in the decomposition”.
With `OC[C@H]1O[C@@](CO)(O[C@H]2O[C@H](CO)[C@@H](O)[C@H](O)[C@H]2O)[C@@H](O)[C@@H]1O` [sucrose], at β-fructofuranosidase [1], the “activity of the enzyme” value is given as “active in the decomposition”.
Consider `OC[C@H]1O[C@H](OC[C@H]2O[C@H](OC[C@H]3O[C@H](O[C@]4(CO)O[C@H](CO)[C@@H](O)[C@@H]4O)[C@H](O)[C@@H](O)[C@@H]3O)[C@H](O)[C@@H](O)[C@H]2O)[C@H](O)[C@@H](O)[C@H]1O` [stachyose], for which the “activity of the enzyme” value at β-fructofuranosidase [1] is reported as “active in the decomposition”.
For silver, the “inhibitive effect of the ion” value at β-fructofuranosidase [2] is recorded as “susceptible to the inhibitive effect”.
On to `OC[C@H]1O[C@@](CO)(OC[C@@]2(OC[C@@]3(O[C@H]4O[C@H](CO)[C@@H](O)[C@H](O)[C@H]4O)O[C@H](CO)[C@@H](O)[C@@H]3O)O[C@H](CO)[C@@H](O)[C@@H]2O)[C@@H](O)[C@@H]1O` [nistose], for which the “activity of the enzyme” value at β-fructofuranosidase [1] is listed as “hardly exhibits activity”.
With `OC[C@H]1O[C@@H](O[C@H]2[C@H](O)[C@@H](O)[C@@H](O[C@]3(CO)O[C@H](CO)[C@@H](O)[C@@H]3O)O[C@@H]2CO)[C@H](O)[C@@H](O)[C@H]1O` [lactosucrose, O-β-D-galactopyranosyl-(1→4)-O-α-D-glucopyranosyl-(1→2)-O-β-D-fructofuranoside], in the test on bifidus bacteria, the “activity as a growth factor of bifidus bacteria” value is listed as “has an activity as a growth factor of bifidus bacteria”.
Consider `OC[C@H]1O[C@@](CO)(OC[C@@]2(O[C@H]3O[C@H](CO)[C@@H](O)[C@H](O)[C@H]3O)O[C@H](CO)[C@@H](O)[C@@H]2O)[C@@H](O)[C@@H]1O` [1-kestose], for which the “activity of the enzyme” value at β-fructofuranosidase [1] is “hardly exhibits activity”.
Regarding zinc, at β-fructofuranosidase [2], the “inhibitive effect of the ion” value is given as “susceptible to the inhibitive effect”.
Turning to `OC[C@H]1O[C@@](CO)(O[C@H]2OC[C@@H](O)[C@H](O)[C@H]2O)[C@@H](O)[C@@H]1O` [xylsucrose, O-β-D-fructofuranosyl-(2→1)-O-α-D-xylopyranoside], the “activity of the enzyme” value at β-fructofuranosidase [1] was “active in the decomposition”.
